Consider 18 compounds from US8846659B2 (priority 2010, dated 2014).

In one test the target is HIV integrase (Human immunodeficiency virus type 1 group M subtype B, UniProt P12497). Description: HIV-integrase inhibition activity: inhibition of [3H]BMS-641493 binding to enzyme-SPA bead complexes. Particulars: competition with [3H]BMS-641493, enzyme-SPA bead complexes; read-out: Activity (Ki toward integrase). The text has this:
HIV-Integrase Inhibition Activity.
Radiolabeled integrase inhibitor, BMS-641493 was used as a known reference ligand to determine the binding constants towards the integrase enzyme of the compounds described in this invention using a method similar to that described in; Dicker et al. J. Biological Chem. 2007, 282, 31186-31196; Dicker et al. J. Biol. Chem. 2008, 283, 23599-23609 and Dicker et al. Biochemistry 2008, 47, 13481-13488. BMS-641493 is a known active-site binding inhibitor as it can be competed […] for [3H]BMS-641493 were determined from fitting data to a saturation binding curve using Graphpad Prism, V4.01. The Ki measurement toward integrase was made by measuring the inhibition of binding of [3H]BMS-641493 to enzyme-SPA bead complexes in the presence of serial dilutions of the test compounds. The Ki value was determined from the [3H]BMS-641493 Kd and the inhibition binding curve using Graphpad Prism, V4.03.

Test [1] concerns recombinant NL-Rluc virus. Kind of test: Inhibition of HIV replication: susceptibility of recombinant NL-Rluc virus to compounds. Type of test: cell-based. To be noted: Human immunodeficiency virus 1, read-out: Activity (EC50, 50% effective concentration).

Counter-ions that a name gives are not always drawn.

What is called Ki is the dissociation constant of the complex between target and ligand, obtained from inhibition or displacement. Consider `CN(C)C(=O)C(=O)NC12CCC(CC1)Cn1c2nc(-c2ncn(Cc3ccc(F)cc3)n2)c(O)c1=O` [Example 9, N′-[2-[1-[(4-Fluorophenyl)methyl]-1H-1,2,4-triazol-3-yl]-6,7,8,9-tetrahydro-3-hydroxy-4-oxo-7,10-ethanopyrimido[1,2-a]azepin-10(4H)-yl]-N,N-dimethylethanediamide], for which, at HIV integrase, the inhibitory constant (Ki) worked out at 1070 nM.
Turning to `NC12CCC(CC1)Cn1c2nc(-c2ncc(Cc3ccc(F)cc3)s2)c(O)c1=O` [Example 5], the EC50 in test [1] turned out to be 60 nM. Moreover, the Ki on HIV integrase was determined as 3880 nM.
With `CN(C)C(=O)C(=O)NC12CCC(CC1)Cn1c2nc(-c2ncc(Cc3ccc(F)cc3)o2)c(O)c1=O` [Example 8, N′-(4-(5-(4-Fluorobenzyl)-1,3-oxazol-2-yl)-3-hydroxy-4-oxo-6,7,8,9-tetrahydro-7,10-ethanopyrimido[1,2-a]azepin-10(4H)-yl)-N,N-dimethylethanediamide], in test [1], the EC50 came out at 0.4 nM. The inhibition constant Ki at HIV integrase stood at 115 nM.
For `CN(C)C(=O)C(=O)NC12CCC(CC1)Cn1c2nc(-c2nnc(Cc3ccc(F)cc3)o2)c(O)c1=O` [Example 7, N′-(2-(5-(4-Fluorobenzyl)-1,3,4-oxadiazol-2-yl)-3-hydroxy-4-oxo-6,7,8,9-tetrahydro-7,10-ethanopyrimido[1,2-a]azepin-10(4H)-yl)-N,N-dimethylethanediamide], the EC50 in test [1] stood at 2 nM. The Ki on HIV integrase was found to be 222 nM.
For the compound `NC12CCC(CC1)Cn1c2nc(-c2ncc(Cc3ccc(F)cc3)[nH]2)c(O)c1=O` [Example 1, 10-Amino-2-[4-[(4-fluorophenyl)methyl]-1H-imidazol-2-yl]-7,8,9,10-tetrahydro-3-hydroxy-7,10-ethanopyrimido[1,2-a]azepin-4(6H)-one], the EC50 in test [1] came to 21 nM.
For `CN(C)C(=O)C(=O)NC12CCC(CC1)Cn1c2nc(-c2ncc(Cc3ccc(F)cc3)s2)c(O)c1=O` [Example 6, N′-(2-(5-(4-Fluorobenzyl)-1,3-thiazol-2-yl)-3-hydroxy-4-oxo-6,7,8,9-tetrahydro-7,10-ethanopyrimido[1,2-a]azepin-10(4H)-yl)-N,N-dimethylethanediamide], the EC50 in test [1] came out at 1 nM. Moreover, the Ki on HIV integrase amounted to 400 nM.
Take `Cc1cc(Cc2cnc(-c3nc4n(c(=O)c3O)CC3CCC4(NC(=O)c4ccn(C)n4)CC3)[nH]2)ccc1F` [Example 18, N-[2-[4-[(4-Fluoro-3-methylphenyl)methyl]-1H-imidazol-2-yl]-6,7,8,9-tetrahydro-3-hydroxy-4-oxo-7,10-ethanopyrimido[1,2-a]azepin-10(4H)-yl]-1-methyl-1H-pyrazole-3-carboxamide]: the EC50 in test [1] is 5 nM. Moreover, on HIV integrase, the Ki was determined as 16 nM.
As to `Cc1cc(Cc2cnc(-c3nc4n(c(=O)c3O)CC3CCC4(NC(=O)c4cccnn4)CC3)[nH]2)ccc1F` [Example 12, N-[2-[4-[(4-Fluoro-3-methylphenyl)methyl]-1H-imidazol-2-yl]-6,7,8,9-tetrahydro-3-hydroxy-4-oxo-7,10-ethanopyrimido[1,2-a]azepin-10(4H)-yl]-3-pyridazinecarboxamide trifluoroacetate salt], in test [1], the EC50 came out at 8 nM. For the same compound, the Ki at HIV integrase was found to be 13 nM.
For the compound `O=C(NC12CCC(CC1)Cn1c2nc(-c2ncc(Cc3ccc(F)cc3)[nH]2)c(O)c1=O)C(=O)N1CCCC1` [Example 3, N-(2-(4-(4-Fluorobenzyl)-1H-imidazol-2-yl)-3-hydroxy-4-oxo-6,7,8,9-tetrahydro-7,10-ethanopyrimido[1,2-a]azepin-10(4H)-yl)-2-oxo-2-(pyrrolidin-1-yl)acetamide], the EC50 in test [1] is 18 nM. Besides, the Ki at HIV integrase is 122 nM.
For `CN(C)C(=O)C(=O)NC12CCC(CC1)Cn1c2nc(-c2ncc(Cc3ccc(F)cc3)[nH]2)c(O)c1=O` [Example 2, N′-(2-(4-(4-Fluorobenzyl)-1H-imidazol-2-yl)-3-hydroxy-4-oxo-6,7,8,9-tetrahydro-7,10-ethanopyrimido[1,2-a]azepin-10(4H)-yl)-N,N-dimethylethanediamide], the EC50 in test [1] was found to be 5 nM. Also, the Ki on HIV integrase was found to be 21 nM.
In the same order, the values of `CN(C)C(=O)C(=O)N(C)C12CCC(CC1)Cn1c2nc(-c2ncc(Cc3ccc(F)cc3)[nH]2)c(O)c1=O` [Example 13, N-[2-[4-[(4-Fluorophenyl)methyl]-1H-imidazol-2-yl]-6,7,8,9-tetrahydro-3-hydroxy-4-oxo-7,10-ethanopyrimido[1,2-a]azepin-10(4H)-yl]-N,N′,N′-trimethyl-ethanediamide trifluoroacetate salt] are 2 nM and 13 nM.
On to `Cc1cc(Cc2cnc(-c3nc4n(c(=O)c3O)CC3CCC4(NC(=O)c4cccnc4)CC3)[nH]2)ccc1F` [Example 11, N-[2-[4-[(4-Fluoro-3-methylphenyl)methyl]-1H-imidazol-2-yl]-6,7,8,9-tetrahydro-3-hydroxy-4-oxo-7,10-ethanopyrimido[1,2-a]azepin-10(4H)-yl]-3-pyridinecarboxamide trifluoroacetate salt], for which the EC50 in test [1] stood at 24 nM. The Ki at HIV integrase came to 19 nM.
Regarding `CN(C)C(=O)C(=O)NC12CCC(CC1)Cn1c2nc(-c2nnc(Cc3ccc(F)cc3)s2)c(O)c1=O` [Example 16, N′-[2-[5-[(4-Fluorophenyl)methyl]-1,3,4-thiadiazol-2-yl]-6,7,8,9-tetrahydro-3-hydroxy-4-oxo-7,10-ethanopyrimido[1,2-a]azepin-10(4H)-yl]-N,N-dimethylethanediamide], in test [1], the EC50 worked out at 21 nM. The inhibitory constant (Ki) at HIV integrase was determined as 1470 nM.
Taken in the same sequence, the figures for `CC(=O)N(C)C1(C(=O)NC23CCC(CC2)Cn2c3nc(-c3ncc(Cc4ccc(F)c(C)c4)[nH]3)c(O)c2=O)CC1` [Example 15, 1-(Acetylmethylamino)-N-[2-[4-[(4-fluoro-3-methylphenyl)methyl]-1H-imidazol-2-yl]-6,7,8,9-tetrahydro-3-hydroxy-4-oxo-7,10-ethanopyrimido[1,2-a]azepin-10(4H)-yl]-cyclopropanecarboxamide trifluoroacetate salt] were 53 nM and 57 nM.
Take `Cc1cc(Cc2cnc(-c3nc4n(c(=O)c3O)CC3CCC4(NC(=O)C(=O)N(C)C)CC3)[nH]2)ccc1F` [Example 10, N′-[2-[4-[(4-Fluoro-3-methylphenyl)methyl]-1H-imidazol-2-yl]-6,7,8,9-tetrahydro-3-hydroxy-4-oxo-7,10-ethanopyrimido[1,2-a]azepin-10(4H)-yl]-N,N-dimethyl-ethanediamide trifluoroacetate salt]: the EC50 in test [1] amounted to 6 nM. In addition, on HIV integrase, the Ki was 9 nM.
Taken in the same sequence, the figures for `Cc1cc(C(=O)NC23CCC(CC2)Cn2c3nc(-c3ncc(Cc4ccc(F)cc4)[nH]3)c(O)c2=O)no1` [Example 4, N-(2-(4-(4-Fluorobenzyl)-1H-imidazol-2-yl)-3-hydroxy-4-oxo-6,7,8,9-tetrahydro-7,10-ethanopyrimido[1,2-a]azepin-10(4H)-yl)-5-methyl-1,2-oxazole-3-carboxamide] were 8 nM and 21 nM.
Turning to `Cc1cc(Cc2c[nH]c(-c3nc4n(c(=O)c3O)CC3CCC4(N(C)C(=O)C(=O)N(C)C)CC3)n2)ccc1F` [Example 17, N-[2-[4-[(4-Fluoro-3-methylphenyl)methyl]-1H-imidazol-2-yl]-6,7,8,9-tetrahydro-3-hydroxy-4-oxo-7,10-ethanopyrimido[1,2-a]azepin-10(4H)-yl]-N,N′,N′-trimethyl-ethanediamide trifluoroacetate salt], the EC50 in test [1] turned out to be 5 nM. In addition, the Ki at HIV integrase is 10 nM.
`Cc1cc(Cc2c[nH]c(-c3nc4n(c(=O)c3O)CC3CCC4(NC(=O)C(C)(C)n4cncn4)CC3)n2)ccc1F` [Example 14, N-[2-[4-[(4-Fluoro-3-methylphenyl)methyl]-1H-imidazol-2-yl]-6,7,8,9-tetrahydro-3-hydroxy-4-oxo-7,10-ethanopyrimido[1,2-a]azepin-10(4H)-yl]-alpha,alpha-dimethyl-1H-1,2,4-triazole-1-acetamide trifluoroacetate salt]: the EC50 in test [1] is 7 nM. The Ki on HIV integrase was 41 nM.
